Experimental data as given in paper PMC9604400, “Synthesis, Anticancer and Antitubercular Properties of New Chalcones and Their Nitrogen-Containing Five-Membered Heterocyclic Hybrids Bearing Sulfonamide Moiety” (International Journal of Molecular Sciences, 2022).

Columns and labels:
NCI-H322M = assay: NCI-60 screen (SRB), non-small cell lung cancer; assay type: cell-based; details: Homo sapiens; for IC50: five-dose screen; for CC50: read-out: LC50
Protocol: All compounds selected by the US National Cancer Institute (NCI) were initially tested at a single dose (10^−5 M) on the full panel of 60 cancer cell lines represented by leukemia, melanoma, lung, colon, central nervous system (CNS), ovarian, kidney, prostate and breast cancer. Only compounds that were able to satisfy the predetermined inhibition criteria against a minimum number of cell lines proceeded to five-dose assays ([…], 0.1 and 0.01 μM).
In these studies, human cancer cell lines were cultured in a RPMI-1640 medium containing 5% fetal bovine serum and 2 mM of L-glutamine. Following the protocol for a typical assay, cells were inoculated into 96-well plates and incubated at 37 °C, 5% CO2, 95% air, and 100% relative humidity for 24 h prior to the addition of the compounds to be tested. After 24 h, two plates of each cell line were fixed in situ with trichloroacetic acid (TCA) to represent a measure of the cell population for each cell line at the time of sample addition (Tz). Compounds were dissolved in DMSO to 400-fold the maximum desired concentration for analysis and subsequently diluted to twice the maximum desired concentration with medium containing 50 μg/mL gentamicin. An additional series of four dilutions at 10-fold concentration was performed to provide a total of five concentrations of the compound plus the control. Aliquots of 100 μL of these dilutions were taken and added to 96-well plates already containing 100 μL of the medium, resulting in the final required concentrations of the sample. The plates were incubated for 48 h at the same conditions. For adherent cells, the assay was terminated with the addition of cold TCA. Cells were fixed in situ by the slow addition of 50 μL of 50% (w/v) cold ATC (final concentration, 10% TCA) and incubated for 60 min at 4 °C. The supernatant was discarded, and the plates were washed five times with tap water and air dried. A quantity of 100 μL of 0.4% (w/v) sulforhodamine B (SRB) solution in 1% acetic acid was added to each well, and each plate was incubated for 10 min at room temperature. Upon completion of staining, unbound pigment was removed by five washes with 1% acetic acid and the plates were air-dried. The stains were solubilized with 10 mM Trizma base and absorbance was recorded on an automated plate reader at a wavelength of 515 nm. Using the absorbance measurements [time zero (Tz), growth control in the absence of the sample and growth test in the presence of the sample at the five concentration levels (Ti)], the percent growth was calculated for each sample at the concentration levels. The percent growth was calculated as: [(Ti − Tz)/(C − Tz)] × 100 for concentrations for which Ti > Tz, and [(Ti − Tz)/Tz] × 100 for concentrations for which Ti < Tz. Two dose-response parameters were calculated for each compound. The 50% growth inhibition (GI50) was calculated from [(Ti − Tz)/(C − Tz)] × 100 = 50, which is the sample concentration at which the net increase in protein is 50% lower in treated cells (as measured by SRB staining) compared to the net increase in protein seen in control cells and the LC50 (sample concentration at which a 50% reduction in protein measured at the end of treatment compared to the beginning), indicating a net loss of cells; calculated from [(Ti − Tz)/Tz] × 100 = −50. Values were calculated for each of these two parameters if the activity level was reached; however, if the effect was not reached or was exceeded, the value for that parameter was expressed as greater or less than the maximum or minimum of the concentration tested.

breast cancer cell lines = assay: NCI-60 screen (SRB), breast cancer panel; assay type: cell-based; details: Homo sapiens, single dose 10 μM, read-out: GI (growth inhibition), range over panel
SR = assay: NCI-60 screen (SRB), leukemia; details: for IC50 / CC50: Homo sapiens; for CC50: read-out: LC50
M14 = assay: NCI-60 screen (SRB), melanoma; details: Homo sapiens; for IC50: M14; for CC50: M14, read-out: LC50
UACC-257 = assay: NCI-60 screen (SRB), melanoma; details: Homo sapiens; for IC50: UACC-257; for CC50: UACC-257, read-out: LC50
SF-539 = assay: NCI-60 screen (SRB), CNS cancer; details: Homo sapiens; for IC50: SF-539; for CC50: SF-539, read-out: LC50
SNB-19 = assay: NCI-60 screen (SRB), CNS cancer; details: Homo sapiens; for IC50: SNB-19; for CC50: SNB-19, read-out: LC50
U251 = assay: NCI-60 screen (SRB), CNS cancer; details: Homo sapiens; for IC50: U-251; for CC50: U-251, read-out: LC50
COLO 205 = assay: NCI-60 screen (SRB), colon cancer; details: for lethality: COLO 205, single dose 10 μM; for IC50 / CC50: Homo sapiens; for IC50: COLO 205; for CC50: COLO 205, read-out: LC50
KM12 = assay: NCI-60 screen (SRB), colon cancer; details: Homo sapiens; for IC50: KM12; for CC50: KM12, read-out: LC50
SW-620 = assay: NCI-60 screen (SRB), colon cancer; details: for IC50 / CC50: Homo sapiens; for IC50: SW-620; for CC50: SW-620, read-out: LC50
786-0 = assay: NCI-60 screen (SRB), renal cancer; details: Homo sapiens; for IC50: 786-0; for CC50: 786-0, read-out: LC50
ACHN = assay: NCI-60 screen (SRB), renal cancer; details: Homo sapiens; for CC50: read-out: LC50
TK-10 = assay: NCI-60 screen (SRB), renal cancer; details: Homo sapiens; for IC50: TK-10; for CC50: TK-10, read-out: LC50
MCF7 = assay: NCI-60 screen (SRB), breast cancer; details: Homo sapiens; for IC50: MCF7; for CC50: MCF7, read-out: LC50
HS 578T = assay: NCI-60 screen (SRB), breast cancer; details: for IC50 / CC50: Homo sapiens, Hs-578T; for CC50: read-out: LC50
BT-549 = assay: NCI-60 screen (SRB), breast cancer; details: Homo sapiens; for IC50: BT-549; for CC50: BT-549, read-out: LC50
T-47D = assay: NCI-60 screen (SRB), breast cancer; details: Homo sapiens, T47D; for CC50: read-out: LC50
IGROV1 = assay: NCI-60 screen (SRB), ovarian cancer; details: Homo sapiens; for IC50: IGROV-1; for CC50: IGROV-1, read-out: LC50

SMILES | IC50 (NCI-H322M) | CC50 (NCI-H322M) | IC50 (SR) | CC50 (SR) | IC50 (M14) | CC50 (M14) | IC50 (UACC-257) | CC50 (UACC-257) | IC50 (SF-539) | CC50 (SF-539) | IC50 (SNB-19) | CC50 (SNB-19) | IC50 (U251) | CC50 (U251) | IC50 (COLO 205) | CC50 (COLO 205) | IC50 (KM12) | CC50 (KM12) | IC50 (SW-620) | CC50 (SW-620) | further results
COc1cc(OC)c(S(N)(=O)=O)cc1C(=O)/C=C/c1ccc(Cl)cc1 [Compound 17b, (E)-5-(3-(4-Chlorophenyl)acryloyl)-2,4-dimethoxybenzenesulfonamide] | 2.31 µM | 38.7 µM | 2.11 µM | > 100 µM | 1.47 µM | 6.7 µM | 5.46 µM | 71.6 µM | 2.14 µM | 12.6 µM | 3.17 µM | > 100 µM | 2.18 µM | > 100 µM | 1.66 µM | 5.88 µM | 1.82 µM | > 100 µM | 2.49 µM | 95.9 µM | inhibition at 10 µM (breast cancer cell lines): 73.9 to 100%; lethality (SR; single dose 10 μM): 19.50%; lethality (COLO 205): 30.00%; lethality (SW-620; SW-620, single dose 10 μM): 39.92%; IC50 (786-0): 1.9 µM; CC50 (786-0): 9.83 µM; IC50 (ACHN): 3.16 µM; CC50 (ACHN): 33.4 µM; IC50 (TK-10): 2.91 µM; CC50 (TK-10): 33.4 µM; IC50 (MCF7): 4.11 µM; CC50 (MCF7): 40.3 µM; IC50 (HS 578T): > 100 µM; CC50 (HS 578T): > 100 µM; IC50 (BT-549): 2.73 µM; CC50 (BT-549): 5.97 µM; IC50 (T-47D): 12.4 µM; CC50 (T-47D): 64.6 µM; IC50 (IGROV1): 2.95 µM; CC50 (IGROV1): > 100 µM
COc1cc(OC)c(S(N)(=O)=O)cc1C(=O)C=Cc1ccccc1 [Compound 17a, 5-Cinnamoyl-2,4-dimethoxybenzenesulfonamide] | 10.7 µM | 47.6 µM | 1.73 µM | > 100 µM | 7.51 µM | 60.5 µM | 9.96 µM | 47.8 µM | 2.44 µM | 30.1 µM | 14 µM | 58 µM | 2.92 µM | 39.2 µM | 10.6 µM | 54.2 µM | 3.31 µM | 62.3 µM | 2.68 µM | 48.5 µM | inhibition at 10 µM (breast cancer cell lines): 73.5 to 100%; IC50 (786-0): 4.82 µM; CC50 (786-0): 63.2 µM; IC50 (ACHN): 6.99 µM; CC50 (ACHN): 44.8 µM; IC50 (TK-10): 12.9 µM; CC50 (TK-10): 51.5 µM; IC50 (MCF7): 0.97 µM; CC50 (MCF7): 62.5 µM; IC50 (HS 578T): 5.89 µM; CC50 (HS 578T): > 100 µM; IC50 (BT-549): 2.65 µM; CC50 (BT-549): 40.6 µM; IC50 (T-47D): 2.09 µM; CC50 (T-47D): 51.6 µM; IC50 (IGROV1): 9.74 µM; CC50 (IGROV1): 77 µM
COc1cc(OC)c(S(=O)(=O)N(CCCl)CCCl)cc1C(=O)/C=C/c1cc(OC)c(OC)c(OC)c1 [Compound 18e, (E)-N,N-bis(2-Chloroethyl)-2,4-dimethoxy-5-(3-(3,4,5-trimethoxyphenyl)acryloyl)benzenesulfonamide] | 3 µM | > 100 µM | 0.99 µM | > 100 µM | 5.45 µM | > 100 µM | 3.89 µM | 9.14 µM | 3.61 µM | 7.51 µM | 5.71 µM | 45.7 µM | 3.68 µM | 7.61 µM | 4.46 µM | 8.39 µM | 4.25 µM | 9.4 µM | 25.1 µM | > 100 µM | lethality (COLO 205): 89.76%; IC50 (786-0): 5.66 µM; CC50 (786-0): > 100 µM; IC50 (ACHN): 6.16 µM; CC50 (ACHN): > 100 µM; IC50 (TK-10): 75 µM; CC50 (TK-10): > 100 µM; IC50 (MCF7): 4.36 µM; CC50 (MCF7): 35.5 µM; GI% (HS 578T; HS 578T, single dose 10 μM): 21.70%; IC50 (HS 578T): > 100 µM; CC50 (HS 578T): > 100 µM; IC50 (BT-549): 2.92 µM; CC50 (BT-549): 6.24 µM; IC50 (T-47D): > 100 µM; CC50 (T-47D): > 100 µM; IC50 (IGROV1): 9.05 µM; CC50 (IGROV1): > 100 µM
